Laboratory results as given in PubChem BioAssay (NCI).
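Step 1: Grow cells in 96-well plates. Step 2: Expose to compound for 48 hours at 5 concentrations. Step 3: Interpolate endpoints linearly; if unreached, use highest concentration. At the TGI there is no net growth.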

Assays:
Test in all cases: DTP human tumour cell line panel, 48 h
MOLT-4 leukemia = system: MOLT-4 leukemia
A498 renal = system: A498 renal
HCT-15 colon = system: HCT-15 colon
SF-268 CNS = system: SF-268 CNS
A549 NSCLC = system: A549 NSCLC
RPMI-8226 leukemia = system: RPMI-8226 leukemia
K-562 leukemia = system: K-562 leukemia
M14 melanoma = system: M14 melanoma
LOX IMVI melanoma = system: LOX IMVI melanoma
SNB-78 CNS = system: SNB-78 CNS

Row | SMILES | TGI (MOLT-4 leukemia) | TGI (A498 renal) | TGI (HCT-15 colon) | TGI (SF-268 CNS) | TGI (A549 NSCLC) | TGI (RPMI-8226 leukemia) | TGI (K-562 leukemia) | TGI (M14 melanoma) | TGI (LOX IMVI melanoma) | TGI (SNB-78 CNS)
1 | NC(=O)Nc1n[nH]c(-c2ccccc2)n1 | > 100 µM | > 100 µM | > 100 µM | > 100 µM | > 100 µM | > 100 µM | > 100 µM | > 100 µM | > 100 µM | –
2 | Cc1cccc(/C=N/NC(=S)NC(C)(C)C)n1 | > 100 µM | > 100 µM | > 100 µM | > 100 µM | > 100 µM | > 100 µM | > 100 µM | > 100 µM | > 100 µM | –
3 | CC(=O)Nc1oc(C)nc1C#N | > 100 µM | > 100 µM | > 100 µM | > 100 µM | > 100 µM | > 100 µM | > 100 µM | > 100 µM | > 100 µM | –
4 | CC[N+]1(C)CCC(O)(/C=C/c2ccc(Cl)c(Cl)c2)C(C(=O)/C=C/c2ccc(Cl)c(Cl)c2)C1 (stereo not given) | 5.17 µM | 7.12 µM | 7.13 µM | 8.54 µM | 15.7 µM | 5.7 µM | 4.07 µM | > 23.3 µM | 2.84 µM | –
5 | O=C(c1ccccc1)c1ccc2c(c1)N=C(c1ccc(Cl)c(Cl)c1)CC(c1ccc3ccccc3c1)N2 (stereo not given) | > 100 µM | > 100 µM | > 100 µM | > 100 µM | > 100 µM | > 100 µM | > 100 µM | > 100 µM | > 100 µM | > 100 µM
6 | CN(c1ccccc1)c1c(-c2ccccc2)c(=O)oc2c1ccc1occc12 | > 100 µM | > 100 µM | > 100 µM | > 100 µM | > 100 µM | – | > 100 µM | – | > 100 µM | > 100 µM
7 | Cc1ccc(N=Nc2cc(=O)[nH]c(=O)[nH]2)cc1C | > 100 µM | 36.9 µM | 11.2 µM | 42.6 µM | 34.7 µM | 14 µM | > 100 µM | 41.1 µM | 3.36 µM | –
8 | COc1cc2c(cc1OCc1ccccc1)NC(=O)[C@@H]1C[C@@H](O)CN1C2=O | > 100 µM | > 100 µM | > 100 µM | > 100 µM | > 100 µM | > 100 µM | > 100 µM | > 100 µM | > 100 µM | –
9 | Cc1nc(-c2ccc(Cl)cc2)cn2c1nc1ccccc12 | > 100 µM | > 100 µM | > 100 µM | > 100 µM | > 100 µM | > 100 µM | > 100 µM | > 100 µM | > 100 µM | –
10 | OCC1=C[C@@](COCc2ccccc2)(OCc2ccccc2)[C@@H](OCc2ccccc2)[C@@H]1OCc1ccccc1 | 8.89 µM | 31.8 µM | 57.8 µM | > 100 µM | 67.3 µM | 7.33 µM | 50.6 µM | > 100 µM | 21.9 µM | –
11 | OCC(CO)CC1COc2ccccc2O1 (stereo not given) | > 10 µM | > 10 µM | > 10 µM | > 10 µM | > 10 µM | > 10 µM | > 10 µM | > 10 µM | > 10 µM | –
12 | O=C(O)c1cc2c(cc1CC(Cc1ccccc1)C(=O)O)CCC2 (stereo not given) | > 100 µM | > 100 µM | > 100 µM | > 100 µM | > 100 µM | > 100 µM | > 100 µM | > 100 µM | > 100 µM | –
13 | CC12CC(=O)NN=C1c1ccccc1C2 (stereo not given) | > 100 µM | > 100 µM | > 100 µM | > 100 µM | > 100 µM | > 100 µM | > 100 µM | > 100 µM | > 100 µM | > 100 µM
14 | CCSc1nn(-c2c3ccccc3nc3ccccc23)c(=S)s1 | > 100 µM | > 100 µM | > 100 µM | > 100 µM | > 100 µM | > 100 µM | > 100 µM | > 100 µM | > 100 µM | –
15 | COC(=O)C[C@H]1[C@]2(C)C3=C(C)[C@H](c4ccoc4)CC3O[C@@H]2[C@@H]2OC(=O)[C@]3(C)CCC(=O)[C@@]1(C)[C@@H]23 (stereo not given in full) | 46.8 µM | > 100 µM | > 100 µM | > 100 µM | > 100 µM | 50.1 µM | > 100 µM | > 100 µM | > 100 µM | –
16 | Oc1cc(Br)cc2cc(Br)cnc12 | 16.1 µM | 24.2 µM | > 100 µM | > 100 µM | > 100 µM | 30.2 µM | 94.2 µM | 29.2 µM | > 100 µM | –
